Assay results published in ChEMBL document CHEMBL1201862, “PubChem BioAssay data set” (2004).
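These data come from cells grown in 96-well plates and exposed to compound for 48 hours at five concentrations. The concentration for 50% growth inhibition is given as GI50.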 The source made the active and inactive calls. No stated cut-off is given here; in the data, active = GI50 up to about 1.1 µM and inactive = higher.

What was measured:
Experiment in all cases: growth of human tumour cells (NCI), 48 h
786-0 = test system: 786-0
A498 = test system: A498
A549 = test system: A549
ACHN = test system: ACHN
BT-549 = test system: BT-549
CAKI-1 = test system: CAKI-1
CCRF-CEM = test system: CCRF-CEM
COLO 205 = test system: COLO 205
DU-145 = test system: DU-145
EKVX = test system: EKVX
HCC 2998 = test system: HCC 2998
HCT-116 = test system: HCT-116
HCT-15 = test system: HCT-15
HL-60 = test system: HL-60
HOP-62 = test system: HOP-62
HT-29 = test system: HT-29
Hs-578T = test system: Hs-578T
IGROV-1 = test system: IGROV-1
K562 = test system: K562
KM12 = test system: KM12
LOX IMVI = test system: LOX IMVI
M14 = test system: M14
MCF7 = test system: MCF7
MDA-MB-231 = test system: MDA-MB-231
MDA-MB-435 = test system: MDA-MB-435
MDA-N = test system: MDA-N
MOLT-4 = test system: MOLT-4
Malme-3M = test system: Malme-3M
NCI-H226 = test system: NCI-H226
NCI-H23 = test system: NCI-H23
NCI-H460 = test system: NCI-H460
NCI-H522 = test system: NCI-H522
OVCAR-8 = test system: OVCAR-8
PC-3 = test system: PC-3
RPMI-8226 = test system: RPMI-8226
SF-268 = test system: SF-268
SF-295 = test system: SF-295
SF-539 = test system: SF-539
SK-MEL-28 = test system: SK-MEL-28
SK-MEL-5 = test system: SK-MEL-5
SK-OV-3 = test system: SK-OV-3
SN12C = test system: SN12C
SNB-19 = test system: SNB-19
SNB-75 = test system: SNB-75
SW-620 = test system: SW-620
T47D = test system: T47D
TK-10 = test system: TK-10
UACC-257 = test system: UACC-257
UACC-62 = test system: UACC-62
UO-31 = test system: UO-31
NCI/ADR-RES = test system: NCI/ADR-RES
OVCAR-3 = test system: OVCAR-3
OVCAR-4 = test system: OVCAR-4
OVCAR-5 = test system: OVCAR-5
RXF 393 = test system: RXF 393
SK-MEL-2 = test system: SK-MEL-2
U-251 = test system: U-251
HOP-92 = test system: HOP-92
SR = test system: SR

SMILES: Cc1nn(C(=O)Cc2ccccc2)c2c1C(c1ccc(/C=C/c3ccccc3)cc1)SC(=N)N2 (stereo not drawn)
- GI50 (786-0): > 100 µM (inactive)
- GI50 (A498): > 100 µM (inactive)
- GI50 (A549): > 100 µM (inactive)
- GI50 (ACHN): > 100 µM (inactive)
- GI50 (BT-549): > 100 µM (inactive)
- GI50 (CAKI-1): > 100 µM (inactive)
- GI50 (CCRF-CEM): > 100 µM (inactive)
- GI50 (COLO 205): > 100 µM (inactive)
- GI50 (DU-145): > 100 µM (inactive)
- GI50 (EKVX): > 100 µM (inactive)
- GI50 (HCC 2998): > 100 µM (inactive)
- GI50 (HCT-116): > 100 µM (inactive)
- GI50 (HCT-15): > 100 µM
- GI50 (HL-60): > 100 µM (inactive)
- GI50 (HOP-62): > 100 µM (inactive)
- GI50 (HT-29): > 100 µM (inactive)
- GI50 (Hs-578T): > 100 µM (inactive)
- GI50 (IGROV-1): > 100 µM (inactive)
- GI50 (K562): > 100 µM (inactive)
- GI50 (KM12): > 100 µM (inactive)
- GI50 (LOX IMVI): > 100 µM (inactive)
- GI50 (M14): > 100 µM (inactive)
- GI50 (MCF7): > 100 µM (inactive)
- GI50 (MDA-MB-231): > 100 µM (inactive)
- GI50 (MDA-MB-435): > 100 µM (inactive)
- GI50 (MDA-N): > 100 µM (inactive)
- GI50 (MOLT-4): > 100 µM (inactive)
- GI50 (Malme-3M): > 100 µM (inactive)
- GI50 (NCI-H226): > 100 µM (inactive)
- GI50 (NCI-H23): > 100 µM (inactive)
- GI50 (NCI-H460): > 100 µM (inactive)
- GI50 (NCI-H522): > 100 µM (inactive)
- GI50 (OVCAR-8): > 100 µM (inactive)
- GI50 (PC-3): > 100 µM (inactive)
- GI50 (RPMI-8226): > 100 µM (inactive)
- GI50 (SF-268): > 100 µM (inactive)
- GI50 (SF-295): > 100 µM (inactive)
- GI50 (SF-539): > 100 µM (inactive)
- GI50 (SK-MEL-28): > 100 µM (inactive)
- GI50 (SK-MEL-5): > 100 µM (inactive)
- GI50 (SK-OV-3): > 100 µM (inactive)
- GI50 (SN12C): > 100 µM (inactive)
- GI50 (SNB-19): > 100 µM (inactive)
- GI50 (SNB-75): > 100 µM (inactive)
- GI50 (SW-620): > 100 µM (inactive)
- GI50 (T47D): > 100 µM (inactive)
- GI50 (TK-10): > 100 µM (inactive)
- GI50 (UACC-257): > 100 µM (inactive)
- GI50 (UACC-62): > 100 µM (inactive)
- GI50 (UO-31): > 100 µM (inactive)

SMILES: Cc1nnc2sc(NN)nn12
- GI50 (786-0): > 100 µM (inactive)
- GI50 (A498): > 100 µM (inactive)
- GI50 (A549): > 100 µM (inactive)
- GI50 (ACHN): > 100 µM (inactive)
- GI50 (BT-549): > 100 µM (inactive)
- GI50 (CAKI-1): > 100 µM (inactive)
- GI50 (CCRF-CEM): 41.4 µM (inactive)
- GI50 (COLO 205): > 100 µM (inactive)
- GI50 (DU-145): > 100 µM (inactive)
- GI50 (EKVX): > 100 µM (inactive)
- GI50 (HCT-116): > 100 µM (inactive)
- GI50 (HCT-15): > 100 µM
- GI50 (HOP-62): > 100 µM (inactive)
- GI50 (HT-29): > 100 µM (inactive)
- GI50 (Hs-578T): > 100 µM (inactive)
- GI50 (IGROV-1): > 100 µM (inactive)
- GI50 (K562): > 100 µM (inactive)
- GI50 (KM12): > 100 µM (inactive)
- GI50 (LOX IMVI): > 100 µM (inactive)
- GI50 (M14): > 100 µM (inactive)
- GI50 (MCF7): > 100 µM (inactive)
- GI50 (MDA-MB-231): > 100 µM (inactive)
- GI50 (MDA-MB-435): > 100 µM (inactive)
- GI50 (MDA-N): 43.5 µM (inactive)
- GI50 (MOLT-4): 17.5 µM (inactive)
- GI50 (Malme-3M): > 100 µM (inactive)
- GI50 (NCI-H226): > 100 µM (inactive)
- GI50 (NCI-H23): > 100 µM (inactive)
- GI50 (NCI-H460): > 100 µM (inactive)
- GI50 (NCI-H522): > 100 µM (inactive)
- GI50 (NCI/ADR-RES): > 100 µM (inactive)
- GI50 (OVCAR-3): > 100 µM (inactive)
- GI50 (OVCAR-4): > 100 µM (inactive)
- GI50 (OVCAR-5): > 100 µM (inactive)
- GI50 (OVCAR-8): > 100 µM (inactive)
- GI50 (PC-3): > 100 µM (inactive)
- GI50 (RPMI-8226): > 100 µM (inactive)
- GI50 (RXF 393): > 100 µM (inactive)
- GI50 (SF-268): > 100 µM (inactive)
- GI50 (SF-295): > 100 µM (inactive)
- GI50 (SF-539): > 100 µM (inactive)
- GI50 (SK-MEL-28): > 100 µM (inactive)
- GI50 (SK-MEL-2): > 100 µM (inactive)
- GI50 (SK-MEL-5): > 100 µM (inactive)
- GI50 (SK-OV-3): > 100 µM (inactive)
- GI50 (SN12C): > 100 µM (inactive)
- GI50 (SNB-19): > 100 µM (inactive)
- GI50 (SNB-75): > 100 µM (inactive)
- GI50 (SW-620): > 100 µM (inactive)
- GI50 (T47D): > 100 µM (inactive)
- GI50 (TK-10): > 100 µM (inactive)
- GI50 (U-251): > 100 µM (inactive)
- GI50 (UACC-257): > 100 µM (inactive)
- GI50 (UACC-62): 77.4 µM (inactive)
- GI50 (UO-31): > 100 µM (inactive)

SMILES: CC(=O)O[C@H]1C[C@]2(O)[C@@H]3CC[C@@H]4C[C@@H](O)CC[C@]4(C)[C@H]3CC[C@]2(C)[C@H]1C1=CC(=O)OC1
- GI50 (786-0): 0.0455 µM (active)
- GI50 (A498): 0.0977 µM (active)
- GI50 (A549): < 0.0144 µM (active)
- GI50 (ACHN): 0.031 µM (active)
- GI50 (BT-549): 0.0284 µM (active)
- GI50 (CAKI-1): 0.034 µM (active)
- GI50 (CCRF-CEM): 0.0375 µM (active)
- GI50 (COLO 205): 0.236 µM (active)
- GI50 (DU-145): 0.0316 µM (active)
- GI50 (EKVX): 0.0458 µM (active)
- GI50 (HCC 2998): 0.161 µM (active)
- GI50 (HCT-116): 0.033 µM (active)
- GI50 (HCT-15): 0.0843 µM
- GI50 (HL-60): 0.0382 µM (active)
- GI50 (HOP-62): 0.0493 µM (active)
- GI50 (HOP-92): 0.192 µM (active)
- GI50 (HT-29): 0.0986 µM (active)
- GI50 (Hs-578T): 0.0675 µM (active)
- GI50 (IGROV-1): 0.103 µM (active)
- GI50 (K562): 0.103 µM (active)
- GI50 (KM12): 0.398 µM (active)
- GI50 (LOX IMVI): 0.0585 µM (active)
- GI50 (M14): 0.172 µM (active)
- GI50 (MDA-MB-231): 0.404 µM (active)
- GI50 (MDA-MB-435): 0.179 µM (active)
- GI50 (MDA-N): 0.0867 µM (active)
- GI50 (MOLT-4): 0.0201 µM (active)
- GI50 (Malme-3M): 0.036 µM (active)
- GI50 (NCI-H226): 0.288 µM (active)
- GI50 (NCI-H23): 0.0366 µM (active)
- GI50 (NCI-H460): 0.0289 µM (active)
- GI50 (NCI-H522): 0.0251 µM (active)
- GI50 (NCI/ADR-RES): 0.074 µM (active)
- GI50 (OVCAR-3): 0.0389 µM (active)
- GI50 (OVCAR-4): 0.0362 µM (active)
- GI50 (OVCAR-5): 0.182 µM (active)
- GI50 (OVCAR-8): 0.0923 µM (active)
- GI50 (PC-3): 0.0662 µM (active)
- GI50 (RPMI-8226): 0.0982 µM (active)
- GI50 (RXF 393): 0.0324 µM (active)
- GI50 (SF-268): 0.0429 µM (active)
- GI50 (SF-295): 0.0391 µM (active)
- GI50 (SF-539): 0.0299 µM (active)
- GI50 (SK-MEL-28): 0.324 µM (active)
- GI50 (SK-MEL-2): 0.218 µM (active)
- GI50 (SK-MEL-5): 0.0318 µM (active)
- GI50 (SK-OV-3): 0.214 µM (active)
- GI50 (SN12C): 0.037 µM (active)
- GI50 (SNB-19): 0.381 µM (active)
- GI50 (SNB-75): 0.153 µM (active)
- GI50 (SR): 0.0315 µM (active)
- GI50 (SW-620): 0.125 µM (active)
- GI50 (T47D): 0.222 µM (active)
- GI50 (TK-10): 0.0796 µM (active)
- GI50 (U-251): 0.128 µM (active)
- GI50 (UACC-257): 0.18 µM (active)
- GI50 (UACC-62): 0.211 µM (active)
- GI50 (UO-31): 0.0632 µM (active)
